Experimental data reported in patent publication US7109296B2, “Human 5-HT3-C protein” (Ortho-McNeil Pharmaceutical, Inc., priority 1999, dated 2006).

Target: T1, human 5-HT3-C (Homo sapiens, UniProt Q8WXA8)
T1 construct: Characterization of the Function of Protein Encoded by p5HT3CR in Xenopus oocvtes; expressed in transfected cells; host or cells: Xenopus laevis oocytes injected with in vitro transcribed cRNA (pGEM HE)
T1 sequence (Q8WXA8 28-447): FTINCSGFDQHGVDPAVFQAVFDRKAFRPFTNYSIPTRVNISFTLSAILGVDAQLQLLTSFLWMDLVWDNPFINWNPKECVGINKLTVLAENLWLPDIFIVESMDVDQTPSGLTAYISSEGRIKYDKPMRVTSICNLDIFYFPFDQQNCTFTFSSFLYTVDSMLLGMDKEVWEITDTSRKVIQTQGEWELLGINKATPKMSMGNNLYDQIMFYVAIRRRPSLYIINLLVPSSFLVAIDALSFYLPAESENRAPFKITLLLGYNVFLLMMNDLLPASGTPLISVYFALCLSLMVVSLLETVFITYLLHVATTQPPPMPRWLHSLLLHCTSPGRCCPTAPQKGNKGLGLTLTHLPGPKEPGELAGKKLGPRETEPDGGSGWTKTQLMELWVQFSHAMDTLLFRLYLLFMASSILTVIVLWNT
Test: Two-electrode voltage clamp, Xenopus oocytes injected with 5-HT3-C cRNA alone
Format: cell-based
Procedure: Characterization of the Function of Protein Encoded by p5HT3CR in Xenopus oocvtes Xenopus laevis oocytes were prepared and injected using standard methods previously described and known in the art (Fraser et al., 1993). Ovarian lobes from adult female Xenopus laevis (Nasco, Fort Atkinson, Wis.) were teased apart, rinsed several times in nominally Ca-free saline containing (in mM): NaCl 82.5, KCl 2.5, MgCl2 1, HEPES 5, adjusted to pH 7.0 with NaOH(OR-2), and gently shaken in OR-2 containing 0.2% collagenase Type 1 (ICN Biomedicals, Aurora, Ohio) for 2–5 hours. When approximately 50% of the follicular layers were removed, Stage V and VI oocytes were selected and rinsed in media consisting of 75% OR-2 and 25% ND-96. The ND-96 contained (in mM): NaCl 100, KCl 2, MgCl2 1, CaCl2 1.8, HEPES 5, Na pyruvate 2.5, gentamicin (50 ug/ml), adjusted to pH 7.0 with NaOH. […] For in vitro transcription, pGEM HE (Liman et al., 1992) containing human 5-HT3-A (Genbank D49394) or 5-HT3-C cDNA was linearized with NheI and transcribed with T7 RNA polymerase (Stratagene) in the presence of the cap analog m7G(5′)ppp(5′)G. The synthesized cRNA was purified with a Sephadex G-50 spin column. […] Control oocytes were injected with 50 nl of water. Oocytes were incubated for 2–14 days in ND-96 before analysis for expression of the human 5-HT3-C. Incubations and collagenase digestion were carried out at room temperature. Injected oocytes were maintained in 48 well cell culture clusters (Costar, Cambridge, Mass.) at 18° C. Whole cell agonist-induced currents were measured 1–14 days after injection with a conventional two-electrode voltage clamp (GeneClamp500, Axon Instruments, Foster City, Calif.) using standard methods previously described and known in the art (Dascal, 1987). The microelectrodes were filled with 3 M KCl, which had resistances of 1 and 2 MΩ. Cells were continuously perfused with ND96 at 10 ml/min at room temperature unless indicated. Membrane voltage was clamped at −70 mV unless indicated.

Compound: NCCc1c[nH]c2ccc(O)cc12 [5-HT, 5-hydroxytryptamine]
- sensitivity of oocytes to neuroactive compound (>100 μM, only 5-HT3-C cRNA (33.5 ng), n=5): insensitive
- effect of agonist (agonist-induced current) (≧100 μM, 33.5 ng or 3.35 ng 5-HT3-C cRNA/oocyte): no effect
